Tests used:
[1] = target: T1, androgen receptor (AR) splicing variant AR-v7 (Homo sapiens, UniProt P10275); assay: Degradation activity on androgen receptor splicing variant AR-v7 in 22RV1 cells (ELISA); format: cell-based; details: AR-v7 degradation in 22RV1 cells, 48 h, class symbols
T1 construct: The degradation activity of compounds on AR-v7 in 22RV1 cells; host or cells: 22RV1 cells
T1 sequence (P10275 1-644 isoform P10275-3): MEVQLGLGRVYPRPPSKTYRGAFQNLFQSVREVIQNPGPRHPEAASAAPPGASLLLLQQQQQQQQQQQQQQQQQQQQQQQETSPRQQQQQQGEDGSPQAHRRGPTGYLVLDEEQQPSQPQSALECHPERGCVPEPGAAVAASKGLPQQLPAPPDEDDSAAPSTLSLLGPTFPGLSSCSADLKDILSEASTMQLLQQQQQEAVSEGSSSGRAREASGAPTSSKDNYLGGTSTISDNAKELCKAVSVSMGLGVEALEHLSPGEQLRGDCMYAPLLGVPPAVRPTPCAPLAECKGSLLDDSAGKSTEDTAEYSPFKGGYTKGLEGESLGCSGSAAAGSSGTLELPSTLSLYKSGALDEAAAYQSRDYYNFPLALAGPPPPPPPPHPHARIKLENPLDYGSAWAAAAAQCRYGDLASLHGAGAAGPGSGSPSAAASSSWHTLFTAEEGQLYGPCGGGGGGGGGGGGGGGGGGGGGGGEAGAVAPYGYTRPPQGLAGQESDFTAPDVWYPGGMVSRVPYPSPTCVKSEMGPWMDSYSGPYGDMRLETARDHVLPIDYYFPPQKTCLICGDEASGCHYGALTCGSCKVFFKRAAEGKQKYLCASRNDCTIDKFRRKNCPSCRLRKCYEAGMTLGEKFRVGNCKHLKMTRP

22RV1 cells = details: Homo sapiens, 22Rv1, 144 h, read-out: 22RV1 IC50 (nM), 22RV1 cells, 6 days culture, CCK-8, OD 450 nm

Row | SMILES | DC50 [1] [nM] | IC50 (22RV1 cells) [nM]
1 | CC(Oc1ccc(C(C)(C)c2ccc(O[C@H]3C[C@H](Nc4ccc5c(c4)C(=O)N(C4CCC(=O)NC4=O)C5=O)C3)cc2)cc1)c1ncnc(N2CC3(COC3)C2)c1F (stereo partly drawn) [Example 280] | < 10 | 7
2 | Cc1nc(-c2ncc(Oc3ccc(C4(c5ccc(O[C@H]6C[C@H](Nc7ccc8c(c7)C(=O)N(C7CCC(=O)NC7=O)C8=O)C6)cc5)CCCC4)cc3)cn2)no1 (stereo partly drawn) [Example 293] | < 10 | 2.5
3 | CC(=O)c1nccc(COc2ccc(C(C)(C)c3ccc(OC[C@H](CCCl)Nc4ccc5c(c4)C(=O)N(C4CCC(=O)NC4=O)C5=O)cc3)cc2)n1 (stereo partly drawn) [Example 306] | < 10 | 13
4 | CC(=O)c1nccc(COc2ccc(C(C)(C)c3ccc(OC[C@@H]4CCN4c4ccc5c(c4)C(=O)N(C4CCC(=O)NC4=O)C5=O)cc3)cc2)n1 (stereo partly drawn) [Example 308, 5-((S)-2-((4-(2-(4-((2-acetylpyrimidin-4-yl)methoxy)phenyl)propan-2-yl)phenoxy)methyl)azetidin-1-yl)-2-(2,6-dioxopiperidin-3-yl)isoindolin-1,3-dione] | 11 to 100 | 19
5 | Cc1nc(-c2ncc(Oc3ccc(C4(c5ccc(O[C@H]6C[C@H](Nc7ccc8c(c7)C(=O)N(C7CCC(=O)NC7=O)C8=O)C6)cc5)CCCCC4)cc3)cn2)no1 (stereo partly drawn) [Example 339] | < 10 | 2
6 | CC(=O)c1nccc(COc2ccc(C(C)(C)c3ccc(OCCCNc4ccc5c(c4)C(=O)N(C4CCC(=O)NC4=O)C5=O)cc3)cc2)n1 (stereo not drawn) [Example 343, 5-((3-(4-(2-(4-((2-acetylpyrimidin-4-yl)methoxy)phenyl)isopropan-2-yl)phenoxy)propyl)amino)-2-(2,6-dioxopiperidin-3-yl)isoindolin-1,3-dione] | 11 to 100 | 19
7 | CC(O)c1nccc(COc2ccc(C(C)(C)c3ccc(OCCCNc4ccc5c(c4)C(=O)N(C4CCC(=O)NC4=O)C5=O)cc3)cc2)n1 (stereo not drawn) [Example 345, 2-(2,6-dioxopiperidin-3-yl)-5-((3-(4-(2-(4-((2-(1-hydroxylethyl)pyrimidin-4-yl)methoxy)phenyl)isopropan-2-yl)phenoxy)propyl)amino)isoindolin-1,3-dione] | 11 to 100 | 10
8 | CC(=O)c1nccc(COc2ccc(C3(c4ccc(OCCCNc5ccc6c(c5)C(=O)N(C5CCC(=O)NC5=O)C6=O)cc4)CCC3)cc2)n1 (stereo not drawn) [Example 351, 5-((3-(4-(1-(4-((2-acetylpyrimidin-4-yl)methoxy)phenyl)cyclobutyl)phenoxy)propyl)amino)-2-(2,6-dioxopiperidin-3-yl)isoindolin-1,3-dione] | < 10 | 7
9 | O=C1CCC(N2C(=O)c3ccc(NC4CC(Oc5ccc(C6(c7ccc(OCc8ccnc(N9CC%10(COC%10)C9)n8)cc7)CCC6)cc5)C4)cc3C2=O)C(=O)N1 (stereo not drawn) [Example 356, 5-((3-(4-(1-(4-((2-(2-oxa-6-azaspiro[3.3]heptane-6-yl)pyrimidin-4-yl)methoxy)phenyl)cyclobutyl)phenoxy)cyclobutyl)amino)-2-(2,6-dioxopiperidin-3-yl)isoindolin-1,3-dione] | < 10 | 16
10 | COc1nccc(COc2ccc(C3(c4ccc(O[C@H]5C[C@H](Nc6ccc7c(c6)C(=O)N(C6CCC(=O)NC6=O)C7=O)C5)cc4)CCC3)cc2)n1 (stereo partly drawn) [Example 357, 2-(2,6-dioxopiperidin-3-yl)-5-(((1r,3r)-3-(4-(1-(4-((2-methoxypyrimidin-4-yl)methoxy)phenyl)cyclobutyl)phenoxy)cyclobutyl)amino)isoindolin-1,3-dione] | < 10 | 5
11 | O=C1CCC(N2C(=O)c3ccc(N[C@H]4C[C@@H](Oc5ccc(S(=O)(=O)c6ccc(OCc7ccnc(N8CC9(COC9)C8)n7)cc6)cc5)C4)cc3C2=O)C(=O)N1 (stereo partly drawn) [Example 363, 5-(((1s,3s)-3-(4-((4-((2-(2-oxa-6-azaspiro[3.3]heptane-6-yl)pyrimidin-4-yl)methoxy)phenyl)sulfonyl)phenoxy)cyclobutyl)amino)-2-(2,6-dioxopiperidin-3-yl)isoindolin-1,3-dione] | < 10 | 24
12 | CC(C)(c1ccc(OCc2ccnc(N3CC4(COC4)C3)n2)c(F)c1)c1ccc(O[C@H]2C[C@H](Nc3ccc4c(c3)C(=O)N(C3CCC(=O)NC3=O)C4=O)C2)c(F)c1 (stereo partly drawn) [Example 365, 5-(((1r,3r)-3-(4-(2-(4-((2-(2-oxa-6-azaspiro[3.3]heptane-6-yl)pyrimidin-4-yl)methoxy)-3-fluorophenyl)isopropan-2-yl)-2-fluorophenoxy)cyclobutyl)amino)-2-(2,6-dioxopiperidin-3-yl)isoindolin-1,3-dione] | < 10 | 9
13 | CC(C)(c1ccc(OCc2ccnc(N3CC4(COC4)C3)n2)c(F)c1)c1ccc(O[C@H]2C[C@@H](Nc3ccc4c(c3)C(=O)N(C3CCC(=O)NC3=O)C4=O)C2)c(F)c1 (stereo partly drawn) [Example 366, 5-(((1s,3s)-3-(4-(2-(4-((2-(2-oxa-6-azaspiro[3.3]heptane-6-yl)pyrimidin-4-yl)methoxy)-3-fluorophenyl)isopropan-2-yl)-2-fluorophenoxy)cyclobutyl)amino)-2-(2,6-dioxopiperidin-3-yl)isoindolin-1,3-dione] | < 10 | 3

Second part, the molecule after the results:

Row | DC50 [1] [nM] | IC50 (22RV1 cells) [nM] | SMILES
14 | < 10 | 5 | CC(C)(c1ccc(OCc2ccnc(C#N)n2)cc1)c1ccc(O[C@H]2C[C@@H](Nc3ccc4c(c3)C(=O)N(C3CCC(=O)NC3=O)C4=O)C2)cc1 (stereo partly drawn) [Example 277, 4-((4-(2-(4-((1s,3s)-3-((2-(2,6-dioxopiperidin-3-yl)-1,3-dioxoisoindolin-5-yl)amino)cyclobutyloxy)phenyl)propan-2-yl)phenoxy)methyl)pyrimidin-2-carbonitrile]
15 | < 10 | 6 | Cc1nc(-c2nccc(COc3ccc(C(C)(C)c4ccc(O[C@H]5C[C@@H](Nc6ccc7c(c6)C(=O)N(C6CCC(=O)NC6=O)C7=O)C5)cc4)cc3)n2)no1 (stereo partly drawn) [Example 278]
16 | < 10 | 5 | CC(C)(c1ccc(OCc2ccnc(-c3ncon3)n2)cc1)c1ccc(O[C@H]2C[C@H](Nc3ccc4c(c3)C(=O)N(C3CCC(=O)NC3=O)C4=O)C2)cc1 (stereo partly drawn) [Example 281]
17 | < 10 | 4 | Cc1nc(-c2nccc(Oc3ccc(C(C)(C)c4ccc(O[C@H]5C[C@H](Nc6ccc7c(c6)C(=O)N(C6CCC(=O)NC6=O)C7=O)C5)cc4)cc3)n2)no1 (stereo partly drawn) [Example 288]
18 | < 10 | 7 | Cc1nnc(-c2nccc(Oc3ccc(C(C)(C)c4ccc(O[C@H]5C[C@H](Nc6ccc7c(c6)C(=O)N(C6CCC(=O)NC6=O)C7=O)C5)cc4)cc3)n2)o1 (stereo partly drawn) [Example 289]
19 | < 10 | 7 | CC(C)C(O)c1ncc(Oc2ccc(C(C)(C)c3ccc(O[C@H]4C[C@H](Nc5ccc6c(c5)C(=O)N(C5CCC(=O)NC5=O)C6=O)C4)cc3)cc2)cn1 (stereo partly drawn) [Example 290]
20 | < 10 | 16 | CC(C)C(=O)c1ncc(Oc2ccc(C(C)(C)c3ccc(O[C@H]4C[C@H](Nc5ccc6c(c5)C(=O)N(C5CCC(=O)NC5=O)C6=O)C4)cc3)cc2)cn1 (stereo partly drawn) [Example 291]
21 | < 10 | 4.2 | CCC(CC)(c1ccc(Oc2cnc(C(C)=O)cn2)cc1)c1ccc(O[C@H]2C[C@H](Nc3ccc4c(c3)C(=O)N(C3CCC(=O)NC3=O)C4=O)C2)cc1 (stereo partly drawn) [Example 294]
22 | < 10 | 11 | CCC(CC)(c1ccc(Oc2cnc(C(C)O)cn2)cc1)c1ccc(O[C@H]2C[C@@H](Nc3ccc4c(c3)C(=O)N(C3CCC(=O)NC3=O)C4=O)C2)cc1 (stereo partly drawn) [Example 295]
23 | < 10 | 7 | CCC(CC)(c1ccc(Oc2cnc(C(C)=O)cn2)cc1)c1ccc(O[C@H]2C[C@@H](Nc3ccc4c(c3)C(=O)N(C3CCC(=O)NC3=O)C4=O)C2)cc1 (stereo partly drawn) [Example 296]
24 | < 10 | 18 | CC(C)(c1ccc(Oc2ncc(N3CC4(COC4)C3)cn2)cc1)c1ccc(O[C@H]2C[C@H](Nc3ccc4c(c3)C(=O)N(C3CCC(=O)NC3=O)C4=O)C2)cc1 (stereo partly drawn) [Example 311]
25 | < 10 | 18 | Cc1noc(-c2ccc(Oc3ccc(C(C)(C)c4ccc(O[C@H]5C[C@H](Nc6ccc7c(c6)C(=O)N(C6CCC(=O)NC6=O)C7=O)C5)cc4)cc3)nn2)n1 (stereo partly drawn) [Example 331]
26 | < 10 | 3 | CC(C)(c1ccc(Oc2cccnn2)cc1)c1ccc(O[C@H]2C[C@H](Nc3ccc4c(c3)C(=O)N(C3CCC(=O)NC3=O)C4=O)C2)cc1 (stereo partly drawn) [Example 333, 2-(2,6-dioxopiperidin-3-yl)-5-((1r,3r)-3-(4-(2-(4-(pyridazine-3-oxy)phenyl)propan-2-yl)phenoxy)cyclobutyl)aminoisoindolin-1,3-dione]
27 | 11 to 100 | 30 | CCC(CC)(c1ccc(OCCCNc2ccc3c(c2)C(=O)N(C2CCC(=O)NC2=O)C3=O)cc1)c1ccc(OCc2ccnc(C(C)=O)n2)cc1 (stereo not drawn) [Example 350, 5-((3-(4-(3-(4-((2-acetylpyrimidin-4-yl)methoxy)phenyl)pentan-3-yl)phenoxy)propyl)amino)-2-(2,6-dioxopiperidin-3-yl)isoindolin-1,3-dione]

Reference: patent publication US20250051347A1, “BIFUNCTIONAL CHIMERIC HETEROCYCLIC COMPOUND AND USE THEREOF AS ANDROGEN RECEPTOR DEGRADER” (Hinova Pharmaceuticals, Inc., priority 2021, published 2025)
